# In PubChem BioAssay (NCI):
#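 Grown in 96-well plates, cells were treated for 48 hours with each compound at five concentrations. Insufficient inhibition: endpoint recorded as highest concentration tested. Definition used: TGI = concentration required for complete inhibition of growth.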
# Assays:
# Test in all cases: inhibition of tumour cell growth, NCI panel, 48 h
# NCI-H23 lung = system: NCI-H23 lung
# SK-OV-3 ovarian = system: SK-OV-3 ovarian
# KM12 colon = system: KM12 colon
# DMS 114 small cell lung = system: DMS 114 small cell lung
# ACHN renal = system: ACHN renal
# EKVX NSCLC = system: EKVX NSCLC
# DLD-1 colon = system: DLD-1 colon
# HT29 colon = system: HT29 colon
# UACC-62 melanoma = system: UACC-62 melanoma
# XF 498 CNS = system: XF 498 CNS
# SNB-75 CNS = system: SNB-75 CNS
# LOX IMVI melanoma = system: LOX IMVI melanoma
# RPMI-8226 leukemia = system: RPMI-8226 leukemia
# SNB-19 CNS = system: SNB-19 CNS
# SF-539 CNS = system: SF-539 CNS
# U251 CNS = system: U251 CNS
# CAKI-1 renal = system: CAKI-1 renal
# NCI-H460 lung = system: NCI-H460 lung
# OVCAR-4 ovarian = system: OVCAR-4 ovarian
# CCRF-CEM leukemia = system: CCRF-CEM leukemia
# A549 NSCLC = system: A549 NSCLC
# IGROV1 ovarian = system: IGROV1 ovarian
# LXFL 529 NSCLC = system: LXFL 529 NSCLC
# K-562 leukemia = system: K-562 leukemia
# UO-31 renal = system: UO-31 renal
# HOP-62 NSCLC = system: HOP-62 NSCLC
# M19-MEL melanoma = system: M19-MEL melanoma
# RXF 393 renal = system: RXF 393 renal
# SK-MEL-28 melanoma = system: SK-MEL-28 melanoma
# COLO 205 colon = system: COLO 205 colon
# M14 melanoma = system: M14 melanoma
# 786-0 renal = system: 786-0 renal
# NCI-H226 lung = system: NCI-H226 lung
# HOP-92 NSCLC = system: HOP-92 NSCLC
# HCT-15 colon = system: HCT-15 colon
# UACC-257 melanoma = system: UACC-257 melanoma
# MOLT-4 leukemia = system: MOLT-4 leukemia
# KM20L2 colon = system: KM20L2 colon
# DMS 273 small cell lung = system: DMS 273 small cell lung
# MALME-3M melanoma = system: MALME-3M melanoma
# SF-268 CNS = system: SF-268 CNS
# SK-MEL-5 melanoma = system: SK-MEL-5 melanoma
# SNB-78 CNS = system: SNB-78 CNS
# HOP-18 NSCLC = system: HOP-18 NSCLC
# A498 renal = system: A498 renal
# OVCAR-5 ovarian = system: OVCAR-5 ovarian
# OVCAR-3 ovarian = system: OVCAR-3 ovarian
# NCI-H522 lung = system: NCI-H522 lung
# HCC-2998 colon = system: HCC-2998 colon
# OVCAR-8 ovarian = system: OVCAR-8 ovarian
# HCT-116 colon = system: HCT-116 colon
# SW-620 colon = system: SW-620 colon
# SN12C renal = system: SN12C renal
# TK-10 renal = system: TK-10 renal
# SK-MEL-2 melanoma = system: SK-MEL-2 melanoma
# SF-295 CNS = system: SF-295 CNS
# HL-60(TB) leukemia = system: HL-60(TB) leukemia
# SR leukemia = system: SR leukemia
structure (smiles),measurement,setting,value
Cc1ccc(S(=O)(=O)NC2CCCCO2)cc1 (stereo unspecified),TGI,NCI-H23 lung,> 100 µM
same,TGI,SK-OV-3 ovarian,> 100 µM
same,TGI,KM12 colon,> 100 µM
same,TGI,DMS 114 small cell lung,> 100 µM
same,TGI,ACHN renal,> 100 µM
same,TGI,EKVX NSCLC,> 100 µM
same,TGI,DLD-1 colon,> 100 µM
same,TGI,HT29 colon,> 100 µM
same,TGI,UACC-62 melanoma,> 100 µM
same,TGI,XF 498 CNS,> 100 µM
same,TGI,SNB-75 CNS,> 100 µM
same,TGI,LOX IMVI melanoma,> 100 µM
same,TGI,RPMI-8226 leukemia,> 100 µM
same,TGI,SNB-19 CNS,> 100 µM
same,TGI,SF-539 CNS,> 100 µM
same,TGI,U251 CNS,> 100 µM
same,TGI,CAKI-1 renal,> 100 µM
same,TGI,NCI-H460 lung,> 100 µM
same,TGI,OVCAR-4 ovarian,> 100 µM
same,TGI,CCRF-CEM leukemia,> 100 µM
same,TGI,A549 NSCLC,> 100 µM
same,TGI,IGROV1 ovarian,> 100 µM
same,TGI,LXFL 529 NSCLC,> 100 µM
same,TGI,K-562 leukemia,> 100 µM
same,TGI,UO-31 renal,> 100 µM
same,TGI,HOP-62 NSCLC,> 100 µM
same,TGI,M19-MEL melanoma,> 100 µM
same,TGI,RXF 393 renal,> 100 µM
same,TGI,SK-MEL-28 melanoma,> 100 µM
same,TGI,COLO 205 colon,> 100 µM
same,TGI,M14 melanoma,> 100 µM
same,TGI,786-0 renal,> 100 µM
same,TGI,NCI-H226 lung,> 100 µM
same,TGI,HOP-92 NSCLC,> 100 µM
same,TGI,HCT-15 colon,> 100 µM
same,TGI,UACC-257 melanoma,> 100 µM
same,TGI,MOLT-4 leukemia,> 100 µM
same,TGI,KM20L2 colon,> 100 µM
same,TGI,DMS 273 small cell lung,> 100 µM
same,TGI,MALME-3M melanoma,> 100 µM
same,TGI,SF-268 CNS,> 100 µM
same,TGI,SK-MEL-5 melanoma,> 100 µM
same,TGI,SNB-78 CNS,> 100 µM
same,TGI,HOP-18 NSCLC,> 100 µM
same,TGI,A498 renal,> 100 µM
same,TGI,OVCAR-5 ovarian,> 100 µM
same,TGI,OVCAR-3 ovarian,> 100 µM
same,TGI,NCI-H522 lung,> 100 µM
same,TGI,HCC-2998 colon,> 100 µM
same,TGI,OVCAR-8 ovarian,> 100 µM
same,TGI,HCT-116 colon,> 100 µM
same,TGI,SW-620 colon,> 100 µM
same,TGI,SN12C renal,> 100 µM
Cn1cc(NC(=O)c2cc(NC(=O)CCCCCCCCCC(=O)Nc3cc(C(=O)Nc4cc(C(=O)NCCC(=N)N)n(C)c4)n(C)c3)cn2C)cc1C(=O)NCCC(=N)N,TGI,NCI-H23 lung,> 100 µM
same,TGI,SK-OV-3 ovarian,> 100 µM
same,TGI,KM12 colon,31.7 µM
same,TGI,TK-10 renal,85.9 µM
same,TGI,DMS 114 small cell lung,> 100 µM
same,TGI,ACHN renal,73.3 µM
same,TGI,EKVX NSCLC,83.1 µM
same,TGI,DLD-1 colon,> 100 µM
same,TGI,HT29 colon,46.2 µM
same,TGI,UACC-62 melanoma,> 100 µM
same,TGI,XF 498 CNS,98.9 µM
same,TGI,SNB-75 CNS,55.4 µM
same,TGI,LOX IMVI melanoma,83.5 µM
same,TGI,RPMI-8226 leukemia,54.9 µM
same,TGI,SNB-19 CNS,> 100 µM
same,TGI,SK-MEL-2 melanoma,> 100 µM
same,TGI,SF-539 CNS,> 100 µM
same,TGI,U251 CNS,> 100 µM
same,TGI,CAKI-1 renal,> 100 µM
same,TGI,NCI-H460 lung,> 100 µM
same,TGI,OVCAR-4 ovarian,> 100 µM
same,TGI,CCRF-CEM leukemia,69.2 µM
same,TGI,A549 NSCLC,57.1 µM
same,TGI,IGROV1 ovarian,> 100 µM
same,TGI,LXFL 529 NSCLC,> 100 µM
same,TGI,K-562 leukemia,> 100 µM
same,TGI,UO-31 renal,> 100 µM
same,TGI,HOP-62 NSCLC,81.3 µM
same,TGI,M19-MEL melanoma,> 100 µM
same,TGI,RXF 393 renal,> 100 µM
same,TGI,SK-MEL-28 melanoma,62.2 µM
same,TGI,COLO 205 colon,> 100 µM
same,TGI,M14 melanoma,70.1 µM
same,TGI,786-0 renal,93.3 µM
same,TGI,NCI-H226 lung,> 100 µM
same,TGI,HOP-92 NSCLC,65.5 µM
same,TGI,HCT-15 colon,> 100 µM
same,TGI,UACC-257 melanoma,> 100 µM
same,TGI,MOLT-4 leukemia,82.1 µM
same,TGI,KM20L2 colon,> 100 µM
same,TGI,DMS 273 small cell lung,> 100 µM
same,TGI,MALME-3M melanoma,26.7 µM
same,TGI,SF-268 CNS,89.3 µM
same,TGI,SK-MEL-5 melanoma,> 100 µM
same,TGI,SNB-78 CNS,> 100 µM
same,TGI,HOP-18 NSCLC,96.1 µM
same,TGI,OVCAR-5 ovarian,66.4 µM
same,TGI,OVCAR-3 ovarian,35.1 µM
same,TGI,NCI-H522 lung,> 100 µM
same,TGI,SF-295 CNS,75 µM
same,TGI,OVCAR-8 ovarian,83.1 µM
same,TGI,HCT-116 colon,> 100 µM
same,TGI,SW-620 colon,> 100 µM
same,TGI,SN12C renal,> 100 µM
CCCC(=O)Nc1ccc(O)c2c1C1CCCCCC21 (stereo unspecified),TGI,NCI-H23 lung,> 100 µM
same,TGI,SK-OV-3 ovarian,> 100 µM
same,TGI,KM12 colon,> 100 µM
same,TGI,TK-10 renal,> 100 µM
same,TGI,DMS 114 small cell lung,> 100 µM
same,TGI,ACHN renal,> 100 µM
same,TGI,EKVX NSCLC,> 100 µM
same,TGI,HL-60(TB) leukemia,> 100 µM
same,TGI,HT29 colon,> 100 µM
same,TGI,UACC-62 melanoma,> 100 µM
same,TGI,XF 498 CNS,> 100 µM
same,TGI,SNB-75 CNS,> 100 µM
same,TGI,LOX IMVI melanoma,> 100 µM
same,TGI,RPMI-8226 leukemia,> 100 µM
same,TGI,SNB-19 CNS,> 100 µM
same,TGI,SK-MEL-2 melanoma,> 100 µM
same,TGI,U251 CNS,> 100 µM
same,TGI,NCI-H460 lung,> 100 µM
same,TGI,OVCAR-4 ovarian,> 100 µM
same,TGI,CCRF-CEM leukemia,> 100 µM
same,TGI,A549 NSCLC,> 100 µM
same,TGI,LXFL 529 NSCLC,> 100 µM
same,TGI,K-562 leukemia,> 100 µM
same,TGI,UO-31 renal,> 100 µM
same,TGI,HOP-62 NSCLC,> 100 µM
same,TGI,M19-MEL melanoma,> 100 µM
same,TGI,RXF 393 renal,> 100 µM
same,TGI,SK-MEL-28 melanoma,> 100 µM
same,TGI,COLO 205 colon,> 100 µM
same,TGI,M14 melanoma,> 100 µM
same,TGI,786-0 renal,> 100 µM
same,TGI,NCI-H226 lung,> 100 µM
same,TGI,HCT-15 colon,> 100 µM
same,TGI,UACC-257 melanoma,> 100 µM
same,TGI,MOLT-4 leukemia,> 100 µM
same,TGI,KM20L2 colon,> 100 µM
same,TGI,DMS 273 small cell lung,> 100 µM
same,TGI,MALME-3M melanoma,> 100 µM
same,TGI,SF-268 CNS,> 100 µM
same,TGI,SK-MEL-5 melanoma,> 100 µM
same,TGI,SNB-78 CNS,> 100 µM
same,TGI,HOP-18 NSCLC,> 100 µM
same,TGI,NCI-H522 lung,> 100 µM
same,TGI,SF-295 CNS,> 100 µM
same,TGI,OVCAR-8 ovarian,> 100 µM
same,TGI,HCT-116 colon,> 100 µM
same,TGI,SW-620 colon,> 100 µM
same,TGI,SR leukemia,> 100 µM
same,TGI,SN12C renal,> 100 µM
